Assay results as given in patent publication US20110178062A1, “INDOLE AND BENZOTHIOPHENE COMPOUNDS AS MODULATORS OF THE HISTAMINE H3 RECEPTOR” (priority 2007, published 2011).

Molecular target: T1, cloned human H3 receptors, stably expressed in SK-N-MC cells (Homo sapiens, UniProt Q9Y5N1)
T1 construct: expressed in transfected cells; host or cells: SK-N-MC cells
Assay: H3 Receptor Binding (Human)
Details: average of the results obtained
Protocol: Binding of compounds to the cloned human H3 receptors, stably expressed in SK-N-MC cells, was performed as described by Barbier, A. J. et al. (Br. J. Pharmacol. 2004, 143(5), 649-661). Data for compounds tested in this assay are presented in Table 1 as an average of the results obtained.

T1 sequence (Q9Y5N1 whole entry): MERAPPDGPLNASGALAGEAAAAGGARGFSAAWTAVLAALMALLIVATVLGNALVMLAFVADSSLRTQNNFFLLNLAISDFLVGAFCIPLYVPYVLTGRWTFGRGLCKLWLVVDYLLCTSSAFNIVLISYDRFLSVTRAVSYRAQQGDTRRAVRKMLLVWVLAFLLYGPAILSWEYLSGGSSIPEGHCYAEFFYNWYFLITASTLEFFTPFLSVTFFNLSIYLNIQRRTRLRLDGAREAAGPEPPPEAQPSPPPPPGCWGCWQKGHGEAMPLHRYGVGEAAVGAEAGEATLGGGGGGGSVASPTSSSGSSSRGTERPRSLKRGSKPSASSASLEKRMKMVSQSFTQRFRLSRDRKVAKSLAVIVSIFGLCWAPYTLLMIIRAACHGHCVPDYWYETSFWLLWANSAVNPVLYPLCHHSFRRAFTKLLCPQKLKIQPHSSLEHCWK

Row | Ki [nM] | SMILES
1 | 1 | CC(C)N1CCN(C(=O)c2ccc3c(CN4CCN(C(=O)c5ccccc5)CC4)c[nH]c3c2)CC1 [Example 63, [3-(4-Benzoyl-piperazin-1-ylmethyl)-1H-indol-6-yl]-(4-isopropyl-piperazin-1-yl)-methanone]
2 | 1 | CC(C)N1CCN(C(=O)c2ccc3c(CN4CCN(c5ccncc5)CC4)c[nH]c3c2)CC1 [Example 64, (4-Isopropyl-piperazin-1-yl)-[3-(4-pyridin-4-yl-piperazin-1-ylmethyl)-1H-indol-6-yl]-methanone]
3 | 171 | O=C(c1ccc2c(CN3CCC(N4CCCCC4)CC3)c[nH]c2c1)N1CCSCC1 [Example 67, (3-[1,4′]Bipiperidinyl-1′-ylmethyl-1H-indol-6-yl)-thiomorpholin-4-yl-methanone]
4 | 36 | O=C(c1ccc2c(CN3CCN(C4CCCC4)CC3)c[nH]c2c1)N1CCSCC1 [Example 68, [3-(4-Cyclopentyl-piperazin-1-ylmethyl)-1H-indol-6-yl]-thiomorpholin-4-yl-methanone]
5 | 19 | CN(C)C1CCN(Cc2c[nH]c3cc(C(=O)N4CCSCC4)ccc23)C1 (stereo not drawn) [Example 69, [3-(3-Dimethylamino-pyrrolidin-1-ylmethyl)-1H-indol-6-yl]-thiomorpholin-4-yl-methanone]
6 | 27 | O=C(c1ccc2c(CN3CCN(C4CCC4)CC3)c[nH]c2c1)N1CCSCC1 [Example 70, [3-(4-Cyclobutyl-piperazin-1-ylmethyl)-1H-indol-6-yl]-thiomorpholin-4-yl-methanone]
7 | 22 | O=C(c1ccc2c(CN3CCCN(C4CCC4)CC3)c[nH]c2c1)N1CCSCC1 [Example 71, [3-(4-Cyclobutyl-[1,4]diazepan-1-ylmethyl)-1H-indol-6-yl]-thiomorpholin-4-yl-methanone]
8 | 36 | CC(C)N1CCCN(Cc2c[nH]c3cc(C(=O)N4CCSCC4)ccc23)CC1 [Example 72, [3-(4-Isopropyl-[1,4]diazepan-1-ylmethyl)-1H-indol-6-yl]-thiomorpholin-4-yl-methanone]
9 | 205 | O=C(c1ccc2c(CN3CCC(N4CCCCC4)CC3)c[nH]c2c1)N1CCOCC1 [Example 73, (3-[1,4′]Bipiperidinyl-1′-ylmethyl-1H-indol-6-yl)-morpholin-4-yl-methanone]
10 | 53 | O=C(c1ccc2c(CN3CCN(C4CCCC4)CC3)c[nH]c2c1)N1CCOCC1 [Example 74, [3-(4-Cyclopentyl-piperazin-1-ylmethyl)-1H-indol-6-yl]-morpholin-4-yl-methanone]
11 | 43 | O=C(c1ccc2c(CN3CCN(C4CCC4)CC3)c[nH]c2c1)N1CCOCC1 [Example 75, [3-(4-Cyclobutyl-piperazin-1-ylmethyl)-1H-indol-6-yl]-morpholin-4-yl-methanone]
12 | 54 | CC(C)N1CCN(Cc2c[nH]c3cc(C(=O)N4CCOCC4)ccc23)CC1 [Example 76, [3-(4-Isopropyl-piperazin-1-ylmethyl)-1H-indol-6-yl]-morpholin-4-yl-methanone]
13 | 38 | O=C(c1ccc2c(CN3CCCN(C4CCC4)CC3)c[nH]c2c1)N1CCOCC1 [Example 77, [3-(4-Cyclobutyl-[1,4]diazepan-1-ylmethyl)-1H-indol-6-yl]-morpholin-4-yl-methanone]
14 | 42 | CC(C)N1CCCN(Cc2c[nH]c3cc(C(=O)N4CCOCC4)ccc23)CC1 [Example 78, [3-(4-Isopropyl-[1,4]diazepan-1-ylmethyl)-1H-indol-6-yl]-morpholin-4-yl-methanone]
15 | 62 | O=C(c1ccc2c(CN3CCC(N4CCCCC4)CC3)c[nH]c2c1)N1CCC(CO)CC1 [Example 79, (3-[1,4′]Bipiperidinyl-1′-ylmethyl-1H-indol-6-yl)-(4-hydroxymethyl-piperidin-1-yl)-methanone]
16 | 38 | O=C(c1ccc2c(CN3CCN(C4CCCC4)CC3)c[nH]c2c1)N1CCC(CO)CC1 [Example 80, [3-(4-Cyclopentyl-piperazin-1-ylmethy)l-1H-indol-6-yl]-(4-hydroxymethyl-piperidin-1-yl)-methanone]
17 | 17 | O=C(c1ccc2c(CN3CCN(C4CCC4)CC3)c[nH]c2c1)N1CCC(CO)CC1 [Example 81, [3-(4-Cyclobutyl-piperazin-1-ylmethy)l-1H-indol-6-yl]-(4-hydroxymethyl-piperidin-1-yl)-methanone]
18 | 34 | CC(C)N1CCN(Cc2c[nH]c3cc(C(=O)N4CCC(CO)CC4)ccc23)CC1 [Example 82, (4-Hydroxymethyl-piperidin-1-yl)-[3-(4-isopropyl-piperazin-1-ylmethyl)-1H-indol-6-yl]-methanone]
19 | 27 | O=C(c1ccc2c(CN3CCCN(C4CCC4)CC3)c[nH]c2c1)N1CCC(CO)CC1 [Example 83, [3-(4-Cyclobutyl-[1,4]diazepan-1-ylmethyl)-1H-indol-6-yl]-(4-hydroxymethyl-piperidin-1-yl)-methanone]

Row | Ki [nM] | SMILES
20 | 87 | CC(C)N1CCCN(Cc2c[nH]c3cc(C(=O)N4CCC(CO)CC4)ccc23)CC1 [Example 84, (4-Hydroxymethyl-piperidin-1-yl)-[3-(4-isopropyl-[1,4]diazepan-1-ylmethyl)-1H-indol-6-yl]-methanone]
21 | 81 | O=C(c1ccc2c(CN3CCC(N4CCCCC4)CC3)c[nH]c2c1)N1CCC(c2ccccc2)CC1 [Example 85, (3-[1,4′]Bipiperidinyl-1′-ylmethyl-1H-indol-6-yl)-(4-phenyl-piperidin-1-yl)-methanone]
22 | 27 | O=C(c1ccc2c(CN3CCN(C4CCCC4)CC3)c[nH]c2c1)N1CCC(c2ccccc2)CC1 [Example 86, [3-(4-Cyclopentyl-piperazin-ylmethyl)-1H-indol-6-yl]-(4-phenyl-piperidin-1-yl)-methanone]
23 | 20 | CN(C)C1CCN(Cc2c[nH]c3cc(C(=O)N4CCC(c5ccccc5)CC4)ccc23)C1 (stereo not drawn) [Example 87, [3-(3-Dimethylamino-pyrrolidin-1-ylmethyl)-1H-indol-6-yl]-(4-phenyl-piperidin-1-yl)-methanone]
24 | 186 | CN(C)C1CCN(Cc2c[nH]c3cc(C(=O)N4CCC(c5ccccc5)CC4)ccc23)CC1 [Example 88, [3-(4-Dimethylamino-piperidin-1-ylmethyl)-1H-indol-6-yl]-(4-phenyl-piperidin-1-yl)-methanone]
25 | 31 | O=C(c1ccc2c(CN3CCCN(C4CCC4)CC3)c[nH]c2c1)N1CCC(c2ccccc2)CC1 [Example 89, [3-(4-Cyclobutyl-[1,4]diazepan-1-ylmethyl)-1H-indol-6-yl]-(4-phenyl-piperidin-1-yl)-methanone]
26 | 21 | O=C(c1ccc2c(CN3CCC(N4CCCCC4)CC3)c[nH]c2c1)N1CCCCCC1 [Example 90, Azepan-1-yl-(3-[1,4′]bipiperidinyl-1′-ylmethyl-1H-indol-6-yl)-methanone]
27 | 15 | CN(C)C1CCN(Cc2c[nH]c3cc(C(=O)N4CCCCCC4)ccc23)C1 (stereo not drawn) [Example 92, Azepan-1-yl-[3-(3-dimethylamino-pyrrolidin-1-ylmethyl)-1H-indol-6-yl]-methanone]
28 | 38 | O=C(c1ccc2c(CN3CCN(C4CCC4)CC3)c[nH]c2c1)N1CCCCCC1 [Example 93, Azepan-1-yl-[3-(4-cyclobutyl-piperazin-1-ylmethyl)-1H-indol-6-yl]-methanone]
29 | 27 | CN(C)C1CCN(Cc2c[nH]c3cc(C(=O)N4CCC(CO)CC4)ccc23)C1 (stereo not drawn) [Example 94, [3-(3-Dimethylamino-pyrrolidin-1-ylmethyl)-1H-indol-6-yl]-(4-hydroxymethyl-piperidin-1-yl)-methanone]
30 | 42 | CC(C)N1CCCN(Cc2c[nH]c3cc(C(=O)N4CCCCCC4)ccc23)CC1 [Example 95, Azepan-1-yl-[3-(4-isopropyl-[1,4]diazepan-1-ylmethyl)-1H-indol-6-yl]-methanone]
31 | 439 | CN(C)C1CCN(Cc2c[nH]c3cc(C(=O)N4CCC(CO)CC4)ccc23)CC1 [Example 96, [3-(4-Dimethylamino-piperidin-1-ylmethyl)-1H-indol-6-yl]-(4-hydroxymethyl-piperidin-1-yl)-methanone]
32 | 59 | CC(C)N1CCCN(Cc2c[nH]c3cc(C(=O)N4CCC(c5ccccc5)CC4)ccc23)CC1 [Example 97, [3-(4-Isopropyl-[1,4]diazepan-1-ylmethyl)-1H-indol-6-yl]-(4-phenyl-piperidin-1-yl)-methanone]
33 | 34 | O=C(c1ccc2c(CN3CCCN(C4CCC4)CC3)c[nH]c2c1)N1CCCCCC1 [Example 98, Azepan-1-yl-[3-(4-cyclobutyl-[1,4]diazepan-1-ylmethyl)-1H-indol-6-yl]-methanone]
34 | 28 | O=C(c1ccc2c(CN3CCN(C4CCCC4)CC3)c[nH]c2c1)N1CCC(Cc2ccccc2)CC1 [Example 99, (4-Benzyl-piperidin-1-yl)-[3-(4-cyclopentyl-piperazin-1-ylmethyl)-1H-indol-6-yl]-methanone]
35 | 233 | CN(C)C1CCN(Cc2c[nH]c3cc(C(=O)N4CCC(Cc5ccccc5)CC4)ccc23)CC1 [Example 100, (4-Benzyl-piperidin-1-yl)-[3-(4-dimethylamino-piperidin-1-ylmethyl)-1H-indol-6-yl]-methanone]
36 | 9 | CN(C)C1CCN(Cc2c[nH]c3cc(C(=O)N4CCC(Cc5ccccc5)CC4)ccc23)C1 (stereo not drawn) [Example 101]
37 | 7 | O=C(c1ccc2scc(CN3CCCCC3)c2c1)N1CCN(C2CCC2)CC1 [Example 103, (4-Cyclobutyl-piperazin-1-yl)-(3-piperidin-1-ylmethyl-benzo[b]thiophen-5-yl)-methanone]
38 | 772 | CC(C)N1CCN(C(=O)c2ccc3scc(C(=O)N4CCCCC4)c3c2)CC1 [Example 104, [5-(4-Isopropyl-piperazine-1-carbonyl)-benzo[b]thiophen-3-yl]-piperidin-1-yl-methanone]

Row | SMILES | Ki [nM]
39 | CC(C)N1CCN(C(=O)c2ccc3c(CN4CCC(O)(c5ccccc5)CC4)c[nH]c3c2)CC1 [Example 65, [3-(4-Hydroxy-4-phenyl-piperidin-1-ylmethyl)-1H-indol-6-yl]-(4-isopropyl-piperazin-1-yl)-methanone] | 1
